Assay results published in ChEMBL document CHEMBL1201862, “PubChem BioAssay data set” (2004).
Activity calls are given as the source filed them.

What was measured:
[1] = target: T1, DNA repair protein RAD52 homolog (Homo sapiens, UniProt P43351); assay type: functional, biochemical
T1 sequence (P43351 whole entry): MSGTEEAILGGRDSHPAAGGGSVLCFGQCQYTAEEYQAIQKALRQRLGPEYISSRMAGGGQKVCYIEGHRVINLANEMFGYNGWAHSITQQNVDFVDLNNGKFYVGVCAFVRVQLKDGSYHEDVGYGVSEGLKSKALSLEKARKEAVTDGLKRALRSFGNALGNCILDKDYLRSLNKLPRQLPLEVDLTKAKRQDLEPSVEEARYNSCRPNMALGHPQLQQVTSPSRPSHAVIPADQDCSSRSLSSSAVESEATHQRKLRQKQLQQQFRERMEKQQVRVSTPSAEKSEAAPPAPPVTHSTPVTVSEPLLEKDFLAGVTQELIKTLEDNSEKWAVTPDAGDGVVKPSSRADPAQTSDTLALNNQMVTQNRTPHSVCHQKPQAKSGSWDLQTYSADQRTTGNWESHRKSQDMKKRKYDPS

[2] = target: T2, Rac GTPase-activating protein 1 (Homo sapiens, UniProt Q9H0H5); assay: MgcRacGAP GTPase-activating activity inhibitors, confirmation, biochemical, ADP Hunter fluorescence, primary and confirmatory (AID 624330); assay type: functional
T2 sequence (Q9H0H5 whole entry): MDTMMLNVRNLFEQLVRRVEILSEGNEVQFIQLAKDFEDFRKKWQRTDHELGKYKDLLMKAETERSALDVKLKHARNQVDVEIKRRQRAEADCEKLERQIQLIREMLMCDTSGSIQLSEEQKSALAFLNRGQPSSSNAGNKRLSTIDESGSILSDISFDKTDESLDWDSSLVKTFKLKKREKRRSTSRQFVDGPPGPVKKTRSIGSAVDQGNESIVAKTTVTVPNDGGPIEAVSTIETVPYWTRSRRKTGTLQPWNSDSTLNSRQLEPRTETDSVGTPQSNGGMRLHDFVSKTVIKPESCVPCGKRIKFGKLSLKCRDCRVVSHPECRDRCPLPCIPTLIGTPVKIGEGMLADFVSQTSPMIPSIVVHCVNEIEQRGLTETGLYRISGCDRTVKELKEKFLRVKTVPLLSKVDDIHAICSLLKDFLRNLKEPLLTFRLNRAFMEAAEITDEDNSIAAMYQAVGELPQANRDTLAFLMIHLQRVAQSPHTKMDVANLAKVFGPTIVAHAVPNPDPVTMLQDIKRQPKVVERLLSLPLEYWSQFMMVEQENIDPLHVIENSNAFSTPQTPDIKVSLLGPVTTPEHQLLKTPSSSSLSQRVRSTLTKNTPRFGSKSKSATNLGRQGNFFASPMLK

[3] = target: T3, Oxysterols receptor LXR-beta (Homo sapiens, UniProt P55055); assay type: functional, cell-based;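 also: agonist activity at LXR measured by a cell-based luminescence readout across a dose range, run as a counterscreen for daf-12 agonists; HEK293 cells with Gal4-LXR fusion and GAL4-driven luciferase reporter; potency for activation of Gal4-LXR reporter so compounds are agonists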
T3 sequence (P55055 whole entry): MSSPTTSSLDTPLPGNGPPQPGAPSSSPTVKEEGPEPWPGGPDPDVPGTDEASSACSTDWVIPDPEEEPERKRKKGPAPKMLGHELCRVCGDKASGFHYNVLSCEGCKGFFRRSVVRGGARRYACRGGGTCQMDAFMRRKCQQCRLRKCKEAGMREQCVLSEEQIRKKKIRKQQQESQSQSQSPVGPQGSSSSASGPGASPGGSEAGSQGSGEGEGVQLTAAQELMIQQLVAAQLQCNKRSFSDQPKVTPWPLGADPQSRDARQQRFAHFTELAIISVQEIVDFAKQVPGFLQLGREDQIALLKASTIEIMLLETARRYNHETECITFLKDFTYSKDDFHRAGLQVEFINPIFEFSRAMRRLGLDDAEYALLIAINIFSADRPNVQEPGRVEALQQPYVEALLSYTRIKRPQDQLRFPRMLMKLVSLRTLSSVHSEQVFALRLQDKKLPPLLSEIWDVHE

[4] = A549 cell cytotoxicity, dose response, cytotoxicity control, plate reader, cherry-pick, antagonist series (AID 743412); assay type: functional, cell-based
[5] = microbe, parasite or virus in culture; assay type: functional; settings: Mycobacterium tuberculosis
[6] = system: Streptococcus; assay: Group A Streptococcus viability loss, dose response, counter-screen for streptokinase expression inhibitor project, luminescence, BacTiterGlo (AID 1915); assay type: functional, organism-based;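 also: potency for reduction of bacterial viability or growth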
[7] = control 3'UTR Renilla luciferase suppression, dose response, counter-screen for Shn3 inhibitor project, cell-based, Clone20-Shn3RL, cherry-picked (AID 624133); assay type: functional
[8] = cytotoxicity toward NIH3T3 fibroblasts, dose response, counter-screen, cell-based, ATP luminescence, mouse fibroblasts (AID 2010); assay type: functional;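 also: cells exposed to compound for about 90 hours before reading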
[9] = target: Heat shock protein HSP 90-alpha (Homo sapiens, UniProt P07900); assay type: functional, organism-based
[10] = Shn3 3'UTR reporter inhibitors, dose response, cell-based, Clone20 osteoblasts, firefly luciferase, cherry-picked (AID 624132); assay type: functional;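 also: firefly luciferase luminescence from reporter carrying the Shn3 3'UTR in osteoblasts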
[11] = HEK293T cytotoxicity, dose response, cytotoxicity control for miR-122 modulator project, cell-based, activator set, cherry-pick (AID 720690); assay type: functional;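 also: HEK293T human cells scored for general mammalian cytotoxicity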
[12] = cells; assay type: functional, cell-based
[13] = system: Streptococcus sp. 'group A'; assay: growth inhibition of control SK(-) GAS strain, dose response, counter-screen for streptokinase expression inhibitor project, luminescence, kanamycin, BacTiterGlo, confirmation (AID 1900); assay type: functional, organism-based
[14] = cells; assay type: functional, cell-based; remark: listed apart in the source
[15] = miR-122 activators in hepatoma reporter cells, dose response, cell-based, Huh7 psiCHECK-miR122, Renilla luciferase, cherry-picked (AID 651956); assay type: functional;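 also: huh7 hepatoma cells stably carrying a psiCHECK-2 miR-122 sensor plasmid; renilla luciferase signal reporting endogenous miR-122 activity after 48 h compound exposure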
[16] = target: T4, Heat shock factor protein 1 (Mus musculus, UniProt P38532); assay: inhibition of MG132-induced HSE-luciferase signal, confirmation, cell-based, NIH3T3, luminescence, dose retest (AID 2382); assay type: functional;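 also: NIH3T3 fibroblasts with HSF1-driven luciferase reporter stressed by proteasome inhibitor MG132; luminescence from HSF1-driven luciferase expression after 8 hours of MG132 stress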
T4 sequence (P38532 whole entry): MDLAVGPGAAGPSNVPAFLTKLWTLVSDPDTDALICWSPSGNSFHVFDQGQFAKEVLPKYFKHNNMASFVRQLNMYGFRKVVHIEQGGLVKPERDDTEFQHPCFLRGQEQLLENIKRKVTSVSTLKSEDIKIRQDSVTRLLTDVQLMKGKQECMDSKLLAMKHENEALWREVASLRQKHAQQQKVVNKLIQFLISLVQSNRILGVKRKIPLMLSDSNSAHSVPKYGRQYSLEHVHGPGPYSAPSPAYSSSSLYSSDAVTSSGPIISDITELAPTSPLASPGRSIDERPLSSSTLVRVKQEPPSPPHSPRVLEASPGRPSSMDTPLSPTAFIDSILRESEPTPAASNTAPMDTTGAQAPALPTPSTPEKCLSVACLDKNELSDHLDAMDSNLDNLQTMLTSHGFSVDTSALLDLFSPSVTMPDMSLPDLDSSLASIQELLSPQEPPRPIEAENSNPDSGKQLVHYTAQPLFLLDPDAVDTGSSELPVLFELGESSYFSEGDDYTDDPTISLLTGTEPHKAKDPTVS

[17] = HepG2 cell cytotoxicity, dose response, cytotoxicity control for Shn3 inhibitor project, CellTiter-Glo, cherry-picked (AID 624134); assay type: functional, cell-based
[18] = inhibitors of intracellular T. cruzi replication, confirmation, NIH3T3 host cells, beta-gal luminescence (AID 2044); assay type: functional, cell-based;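 also: intracellular parasites grown in NIH/3T3 mouse fibroblasts as host cells; luminescent beta-galactosidase reporter signal from transgenic T. cruzi replicating inside host cells; inhibitors lower the luminescence signal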
[19] = target: Glucose-6-phosphate 1-dehydrogenase (Homo sapiens, UniProt P11413); assay: human G6PD enzyme inhibitors, dose response, selectivity assay for P. falciparum G6PD inhibitor project, biochemical, fluorescence (AID 504792); assay type: functional
[20] = CEM21 lymphoblast cell cytotoxicity, dose response, cytotoxicity control for viral fusion inhibitor project, CellTiter-Glo luminescence, cherry-picked (AID 652042); assay type: functional, cell-based;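 also: potency for signal decrease meaning cytotoxicity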
[21] = inhibitors of HIV Env-driven cell fusion, dose response, cherry-pick (AID 652057); assay type: functional, cell-based
[22] = off-target signal loss in HeLa-CEM21 co-culture – HeLa F-luc CTL cells, cherry-picked, counter-screen for HIV-1 Env fusion inhibitor project, dose response (AID 652040); assay type: functional, cell-based;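 also: potency for signal decrease marking cytotoxic or nonspecific inhibition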
[23] = inhibitors of clade B AD8 Env fusion, dose response, cell-based, cherry-pick (AID 652062); assay type: functional;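 also: luciferase signal from cell-cell fusion driven by HIV-1 clade B AD8 Env; potency is for inhibitors of fusion seen as a drop in luminescence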
[24] = ZM109 Env clade C HIV-1 fusion inhibitors, dose response, HeLa effector, CEM target cells, luciferase, cherry-pick (AID 652058); assay type: functional, cell-based
[25] = IGROV1 ovarian cancer cell cytotoxicity, dose response, PAX8 inhibitor project, plate reader, dry powder samples (AID 743043); assay type: functional, cell-based; settings: IGROV-1
[26] = NIH:OVCAR-3 ovarian cancer cell cytotoxicity, dose response, PAX8 inhibitor project, plate reader, dry powder samples (AID 743044); assay type: functional, cell-based
[27] = target: Paired box protein Pax-8 (Homo sapiens, UniProt Q06710); assay: inhibitors of PAX8-driven TPO luciferase reporter, dose response, RMG-I cells, cherry-pick (AID 687027); assay type: functional, cell-based;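 also: luciferase reporter driven by Pax8 target thyroperoxidase promoter measured by SteadyGlo luminescence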
[28] = non-specific cell cytotoxicity, dose response, cytotoxicity control for PAX8 inhibitor project, plate reader, dry powder samples (AID 743021); assay type: functional, cell-based
[29] = HEK293T cytotoxicity, dose response, cytotoxicity control for miR-122 modulator project, cell-based, inhibitor set, cherry-pick, set 2 (AID 720697); assay type: functional
[30] = system: HeLa; assay: HeLa cell cytotoxicity, dose response, cytotoxicity control, ATP luminescence, cherry-pick samples (AID 687004); assay type: functional, cell-based; settings: Homo sapiens
[31] = cytotoxicity in OVCAR8 ovarian cancer cells, dose response, PAX8 project, cell-based, plate reader, dry powder samples (AID 743197); assay type: functional; settings: OVCAR-8
[32] = T. cruzi growth inhibition in host cells, dose response, cell-based, plate reader, dry powder, set 2 (AID 652275); assay type: functional

Sequence of Paired box protein Pax-8 (Q06710 whole entry): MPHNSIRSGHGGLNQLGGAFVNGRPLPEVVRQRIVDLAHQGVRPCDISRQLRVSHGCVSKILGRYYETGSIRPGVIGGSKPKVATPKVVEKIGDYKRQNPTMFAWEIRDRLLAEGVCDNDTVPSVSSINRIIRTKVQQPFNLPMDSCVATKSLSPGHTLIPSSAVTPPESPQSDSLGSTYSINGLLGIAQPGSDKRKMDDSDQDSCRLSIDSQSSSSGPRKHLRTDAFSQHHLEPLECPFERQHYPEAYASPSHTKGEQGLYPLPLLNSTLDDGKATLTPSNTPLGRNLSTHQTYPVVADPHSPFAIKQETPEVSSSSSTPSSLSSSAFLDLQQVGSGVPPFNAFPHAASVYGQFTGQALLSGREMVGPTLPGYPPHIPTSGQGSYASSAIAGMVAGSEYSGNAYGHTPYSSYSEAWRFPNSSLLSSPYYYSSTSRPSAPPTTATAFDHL
Sequence of Glucose-6-phosphate 1-dehydrogenase (P11413 whole entry, the tested form may be a part): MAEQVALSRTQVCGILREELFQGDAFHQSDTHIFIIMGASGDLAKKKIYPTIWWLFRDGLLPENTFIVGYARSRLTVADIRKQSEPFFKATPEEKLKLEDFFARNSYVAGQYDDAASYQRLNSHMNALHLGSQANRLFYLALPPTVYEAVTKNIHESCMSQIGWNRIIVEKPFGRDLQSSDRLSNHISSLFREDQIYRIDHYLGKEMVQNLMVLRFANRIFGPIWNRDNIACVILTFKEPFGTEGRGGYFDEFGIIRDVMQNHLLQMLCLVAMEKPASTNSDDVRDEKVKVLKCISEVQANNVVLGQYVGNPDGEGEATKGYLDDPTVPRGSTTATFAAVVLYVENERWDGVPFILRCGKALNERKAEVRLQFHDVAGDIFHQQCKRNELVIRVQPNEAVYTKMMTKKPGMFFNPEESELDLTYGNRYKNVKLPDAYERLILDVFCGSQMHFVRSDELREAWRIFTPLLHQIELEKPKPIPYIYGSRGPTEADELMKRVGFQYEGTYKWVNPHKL

## O=C(CN1CCCCC1)Nc1ccc(N2CCCCCC2)cc1
[1]
  AC50: 22.8 µM (active)
[2]
  IC50: 126 µM (active)

## Cc1ccc(-c2csc(NC(=O)C[n+]3cc(-c4ccccc4)n4c3CCC4)n2)cc1
[1]
  AC50: 21.1 µM (active)

## Cc1nnc(SCC(=O)Nc2nsc(-c3ccc(C(C)(C)C)cc3)n2)s1
[3]
  EC50: > 67.5 µM (inactive)

## Cc1ccc(-n2cc(CN(C)Cc3nccn3C)c(-c3cccc(C)c3)n2)cc1
[4]
  AC50: > 52 µM (inactive)
[5]
  CC50: > 40 µM (active)

## CC(=O)NC(c1ccc(C)cc1)c1cc(Cl)c2cccnc2c1O (configuration not stated)
[6]
  EC50: 6.97 µM (active)
[7]
  AC50: 3.29 µM (active)
[8]
  EC50: 0.763 µM (active)
[9]
  AC50: 3.52 µM (active)
[10]
  AC50: 2.12 µM (active)
[11]
  AC50: 2.8 µM (active)
[12]
  EC50: > 350 µM (not active)
[13]
  EC50: 1.38 µM (active)
[14]
  EC50: 14.7 µM (active)
[15]
  AC50: 37.4 µM (active)
[16]
  EC50: 0.911 µM (active)
[17]
  AC50: 4.67 µM (active)
[18]
  EC50: 0.655 µM (active)

## COc1cc(-c2cc(OC)c(O)c(OC)c2)cc(OC)c1O
[19]
  IC50: > 80 µM (inactive)
[20]
  AC50: 27.4 µM (active)
[2]
  IC50: 88.4 µM (active)

## O=C1[C@H](Cc2ccccc2)NCCCC[C@H](c2ccco2)N1Cc1ccccc1
[21]
  AC50: 4.38 µM (active)
[22]
  AC50: 7.61 µM (active)
[20]
  AC50: 39.9 µM (active)
[23]
  AC50: 35.3 µM (active)
[24]
  AC50: 10.4 µM (active)

## Cc1nc2cc(Oc3nc(NCCN(C)C)nc4ccsc34)ccc2s1
[1]
  AC50: 21 µM (active)

## Cc1ccccc1-c1ccc([C@@H]2[C@H](CO)N3CCCCN(C(=O)Nc4cccc(F)c4)C[C@@H]23)cc1
[11]
  AC50: 13.7 µM (active)
[25]
  AC50: 35.5 µM (active)
[26]
  AC50: 20.4 µM (active)
[27]
  AC50: 19.6 µM (active)
[15]
  AC50: 9.43 µM (active)
[28]
  AC50: 3.19 µM (active)

## CCNC(=O)Nc1ccc2c(c1)C(=O)N(C)[C@H]1CC[C@H](CC(=O)Nc3ccccc3F)O[C@@H]1CO2
[29]
  AC50: 2.11 µM (active)
[30]
  AC50: 0.264 µM (active)

## N#C[C@@H]1[C@H](c2ccc(-c3ccccc3F)cc2)[C@@H](CO)N1C(=O)c1ccccn1
[21]
  AC50: 62.6 µM (active)
[20]
  AC50: 67 µM (active)

## Cc1cccc(S(=O)(=O)N2CCCCN3[C@H](CO)[C@H](c4ccc(C#C[C@H](C)O)cc4)[C@H]3C2)c1
[31]
  AC50: > 70 µM (inactive)
[25]
  AC50: 17.6 µM (active)
[26]
  AC50: 30.4 µM (active)
[27]
  AC50: 7.18 µM (active)

## C[C@@H]1CCCCO[C@H](CN(C)Cc2ccc(Cl)c(Cl)c2)[C@@H](C)CN([C@@H](C)CO)C(=O)c2cc(NC(=O)c3ccccc3)ccc2O1
[31]
  AC50: 60 µM (active)
[25]
  AC50: 47.5 µM (active)
[26]
  AC50: 43.1 µM (active)
[27]
  AC50: 8.87 µM (active)
[28]
  AC50: 52.7 µM (active)

## CC(C)N1CC2(CN(Cc3ccc(Cl)cc3)C2)Oc2c(NC(=O)c3ccncc3)cccc2C1=O
[32]
  AC50: 0.136 µM (active)

## COCC(=O)Nc1ccc2c(c1)C(=O)N(C)[C@@H]1CC[C@H](CC(=O)N3CCc4ccccc4C3)O[C@H]1CO2
[11]
  AC50: 37 µM (active)
[29]
  AC50: 9.29 µM (active)

## CC(C)N1C(=O)c2cccc(NC(=O)c3ccncc3)c2O[C@H](CN(C)Cc2ccc(Cl)cc2)[C@H]1C
[32]
  AC50: 0.00096 µM (active)

## CC(C)(C)[S+]([O-])N1Cc2cc(C(=O)NCc3ccc4c(c3)OCO4)nc(-c3cccc(-c4cccc(F)c4)c3)c2[C@H]1CCO (some centres not stated)
[32]
  AC50: 0.394 µM (active)
